For the assay, the target named is T1, BRPF1 (Homo sapiens, UniProt P55201).
T1 sequence (P55201 1-1214): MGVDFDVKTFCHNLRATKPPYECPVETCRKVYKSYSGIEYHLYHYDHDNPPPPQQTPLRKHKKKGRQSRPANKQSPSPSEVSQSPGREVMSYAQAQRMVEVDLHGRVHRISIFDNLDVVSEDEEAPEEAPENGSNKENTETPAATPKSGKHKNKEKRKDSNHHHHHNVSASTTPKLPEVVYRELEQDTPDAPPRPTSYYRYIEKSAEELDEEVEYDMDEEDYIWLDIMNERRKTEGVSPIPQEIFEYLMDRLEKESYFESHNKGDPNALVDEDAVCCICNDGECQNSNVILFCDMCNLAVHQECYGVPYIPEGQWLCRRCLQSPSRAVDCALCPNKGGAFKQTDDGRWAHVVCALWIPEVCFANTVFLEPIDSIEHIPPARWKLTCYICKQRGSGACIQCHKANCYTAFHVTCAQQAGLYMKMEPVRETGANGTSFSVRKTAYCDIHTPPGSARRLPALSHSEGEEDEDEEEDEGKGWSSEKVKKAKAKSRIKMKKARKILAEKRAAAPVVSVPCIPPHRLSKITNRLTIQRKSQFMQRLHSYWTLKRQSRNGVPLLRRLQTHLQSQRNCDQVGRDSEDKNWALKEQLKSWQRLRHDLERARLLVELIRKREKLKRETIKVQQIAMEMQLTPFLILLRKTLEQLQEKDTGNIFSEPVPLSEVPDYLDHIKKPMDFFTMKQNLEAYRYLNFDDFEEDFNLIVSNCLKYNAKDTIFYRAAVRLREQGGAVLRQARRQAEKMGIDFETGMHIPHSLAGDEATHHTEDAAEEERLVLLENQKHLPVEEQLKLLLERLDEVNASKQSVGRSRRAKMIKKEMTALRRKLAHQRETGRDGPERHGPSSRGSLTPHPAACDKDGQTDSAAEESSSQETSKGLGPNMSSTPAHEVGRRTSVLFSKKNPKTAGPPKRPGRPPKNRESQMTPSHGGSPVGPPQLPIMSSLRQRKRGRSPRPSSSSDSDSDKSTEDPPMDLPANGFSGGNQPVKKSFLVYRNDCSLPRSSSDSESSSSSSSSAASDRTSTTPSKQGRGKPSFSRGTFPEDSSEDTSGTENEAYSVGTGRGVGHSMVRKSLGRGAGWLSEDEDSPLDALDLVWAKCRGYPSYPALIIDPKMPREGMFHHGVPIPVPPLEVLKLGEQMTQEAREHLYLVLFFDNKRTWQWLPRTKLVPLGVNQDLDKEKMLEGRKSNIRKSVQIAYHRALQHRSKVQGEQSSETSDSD
As to conditions: binder.

For the molecule `Cc1cccc(-c2ccc(-c3cc4cnc(NCCCc5ccc(N)cc5)nc4n(CCCCN)c3=O)c(Cl)c2)n1` [compound 25, 8-(4-Aminobutyl)-2-((3-(4-aminophenyl)propyl)amino)-6-(2-chloro-4-(6-methylpyridin-2-yl)phenyl)pyrido[2,3-d]pyrimidin-7(8H)-one], the “ΔTm 25” value was -1.4 °C.
With `CNc1ncc2cc(-c3ccc(-c4cccc(C)n4)cc3Cl)c(=O)n(C[C@H]3CC[C@H](N)CC3)c2n1` [compound 23, 23], the “ΔTm 23” value is -1.8 °C.
Consider `CNc1ncc2cc(-c3ccc(-c4cccc(C)n4)cc3Cl)c(=O)n(CCC3CCNCC3)c2n1` [compound 22, 6-(2-Chloro-4-(6-methylpyridin-2-yl)phenyl)-2-(methylamino)-8-(2-(piperidin-4-yl)ethyl)pyrido[2,3-d]pyrimidin-7(8H)-one], for which the “ΔTm 22” value was -0.4 °C.
Turning to `Cc1cccc(-c2ccc(-c3cc4cnc(NC(CO)CO)nc4n(CCCCN)c3=O)c(Cl)c2)n1` [compound 24, 8-(4-Aminobutyl)-6-(2-chloro-4-(6-methylpyridin-2-yl)phenyl)-2-((1,3-dihydroxypropan-2-yl)amino)pyrido[2,3-d]pyrimidin-7(8H)-one], the “ΔTm MR24 (24)” value is -1.5 °C.
For `Cc1cccc(-c2ccc(-c3cc4cnc(NCCCN5CCOCC5)nc4n(CCCCN)c3=O)c(Cl)c2)n1` [compound 26, MR26], the “ΔTm MR26 (26)” value is -1.0 °C.

The record behind these values is doi:10.1101/2023.11.24.568596v1 (biorxiv, 2023).
